Reference: patent US9926529B2, “Derivation of neural stem cells and dopaminergic neurons from human pluripotent stem cells” (International Stem Cell Corporation, priority 2012, dated 2018)
Where two headings read alike, the source gives them in different places.

Columns and labels:
hPSC-NSCs [1] = experiment: RT-PCR expression of dopamine neuron genes in hPSC-NSCs treated with small molecule hits; type: cell-based, human; settings: Homo sapiens, Neuron, 336 h, hPSC-NSCs primed 7 days with Purmorphamine and FGF8, small molecule 2.5 μM for two weeks
Experimental: (§1) The method specifically involved treating both hESC-H9-NSCs (Invitrogen) and hPSC-NSCs with Purmorphamine (2 μM) and FGF8 (100 ng/mL) in NB medium [NeuroBasal medium, 1× GlutaMAX, 1× N2/B27 Supplement (Invitrogen)] for 7 days. After 7 days of Purmorphamine and FGF8 treatment, the NSCs were dissociated with Accutase (Sigma) and plated 20,000 cells/mL into Matrigel coated 96 well plates and treated with small molecule library (Torcris 1120 Biologically Active Compounds) at 2.5 μM final concentration for two weeks (FIG. 6A). Two weeks after treatment with small molecules, all wells were visually observed and scored based on neurite density and dopamine release. For measuring neurite density, cells were fixed with 4% paraformaldehyde and phase contrast images were acquired using Cellavista Cell Imaging System (Roche Applied Science) from randomly selected fields. Neurite density was measured using the Cellavista density software image processing program. Each experimental condition was done in duplicate wells, and at least three independent experiments were conducted to acquire the final results.
(§2) Conditioned medium from the top neurite inducers (Table 1) (wells containing the highest density of neurites compare to control 0.1% DMSO treated) were collected and analyzed using a dopamine ELISA assay (Cosmo Bio). Conditioned medium was collected from samples containing 50,000 cells per well and centrifuged at 3000 RPM to remove cell debris. Supernatant was then collected and analyzed for quantitative determination of dopamine using a commercial dopamine ELISA assay kit (CusaCosmo Bio). Data analysis was performed using the microtiter plate reader (BIO-TEK Synergy 2). The results presented are from three independent experiments (n=3) and represented as mean±standard error of mean (s.e.m.) and statistical analysis was performed using the two-tailed Student's t-test with a confidence level of 95% (α=0.05) with statistical significance of P<0.05. Additionally, total RNA from each well were collected and analyze by RT-PCR for expression of TuJ1, MAP2, TH, GRK2, EN1, DAT, AADC, PAX2, NURR1, PITX3 and LMX1B from hPSC-NSCs (Table 2). […] Analysis of the ELISA data indicated the top small molecule neurite inducers produced higher levels of dopamine than control non-treated cells (1.5 ng/mL). […] The percentages of TH positive cells produced by chemical treatment with Kenpaullone (33%), Guggulsterone (35%), Kynurenic Acid (19%), Immedthridine Dihydrobromide (21%), and Dimaprit Dihydrochloride (18%) were higher than 15% of TH positive cells obtained from hPSC-NSCs differentiated for ≥1 month using a standard dopaminergic differentiation medium (BDNF 20 ng/mL, GDNF 20 ng/mL, cAMP 200 μM, Abscorbic Acid 200 μM, TGFβ3 2 ng/mL and DAPT).
Total RNA from at least triplicate samples with around 1 million cells each was isolated using either QIAsymphony automatic purification system or RNeasy Plus Mini kit, according to manufacturer's instructions (Qiagen). Total RNA was used for reverse transcription with the iScript cDNA synthesis kit (Biorad) and Px2 Thermal Cycler (Thermo Scientific). To analyze gene expression, PCR reactions were performed in duplicate using 1/25-th of the cDNA per reaction and the QuantiTect Primer Assay and Quantitest SYBR Green master mix (Qiagen). qPCR was performed using the Rotor-Gene Q (Qiagen) 5 min at 95° C., 5 s at 92° C., and 20 s at 60° C. for 37 cycles followed by melt to check the specificity of the amplicons from 50 to 99° C. raising by 1° C. each step. Relative quantification was performed against a standard curve and quantified values were normalized against the input determined by PPIG. The primers used for the analysis are listed in Supplementary Table S1. […]

hPSC-NSCs [2] = experiment: Percentage of TH positive cells produced by chemical treatment; type: cell-based, human; settings: chemical treatment 2.5 μM for two weeks
Experimental: as §1, §2

With `O=C(O)c1cc(=O)c2ccccc2[nH]1` [Kynurenic acid] the fold induction at 2.5 µM (hPSC-NSCs [1]; read-out: DDC (AADC) expression by RT-PCR) was 37.5, the fold induction at 2.5 µM (hPSC-NSCs [1]; read-out: EN1 expression by RT-PCR) was 9.25 and the fold induction at 2.5 µM (hPSC-NSCs [1]; read-out: KCNJ6 expression by RT-PCR) was 0.07. It also gave a fold induction at 2.5 µM (hPSC-NSCs [1]; read-out: LMX1B expression by RT-PCR) of 6.36, a fold induction at 2.5 µM (hPSC-NSCs [1]; read-out: MAP2 expression by RT-PCR) of 9.12 and a fold induction at 2.5 µM (hPSC-NSCs [1]; read-out: NR4A2 (NURR1) expression by RT-PCR) of 0.27. It also gave a fold induction at 2.5 µM (hPSC-NSCs [1]; read-out: Pax2 expression by RT-PCR) of 1.16, a fold induction at 2.5 µM (hPSC-NSCs [1]; read-out: SLC6A3 (DAT) expression by RT-PCR) of 3.41 and a fold induction at 2.5 µM (hPSC-NSCs [1]; read-out: TH1 expression by RT-PCR) of 16.8. For the same compound, the fold induction at 2.5 µM (hPSC-NSCs [1]; read-out: Tubb3 expression by RT-PCR) was 6.43 and the “percentage of TH positive cells” value (hPSC-NSCs [2]) was 19%.
